Measured values as given in PubChem BioAssay (NCI).
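The compound was tested at five concentrations on cells cultured in 96-well plates, with a 48-hour exposure period. TGI: concentration producing complete growth inhibition.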

Key:
Test in all cases: NCI anticancer screen, dose series, 48 h
786-0 renal = tested on: 786-0 renal
A498 renal = tested on: A498 renal
A549 NSCLC = tested on: A549 NSCLC
ACHN renal = tested on: ACHN renal
BT-549 breast = tested on: BT-549 breast
CAKI-1 renal = tested on: CAKI-1 renal
CCRF-CEM leukemia = tested on: CCRF-CEM leukemia
COLO 205 colon = tested on: COLO 205 colon
DU-145 prostate = tested on: DU-145 prostate
EKVX NSCLC = tested on: EKVX NSCLC
HCC-2998 colon = tested on: HCC-2998 colon
HCT-116 colon = tested on: HCT-116 colon
HCT-15 colon = tested on: HCT-15 colon
HL-60(TB) leukemia = tested on: HL-60(TB) leukemia
HOP-62 NSCLC = tested on: HOP-62 NSCLC
HOP-92 NSCLC = tested on: HOP-92 NSCLC
HS 578T breast = tested on: HS 578T breast
HT29 colon = tested on: HT29 colon
IGROV1 ovarian = tested on: IGROV1 ovarian
K-562 leukemia = tested on: K-562 leukemia
KM12 colon = tested on: KM12 colon
LOX IMVI melanoma = tested on: LOX IMVI melanoma
M14 melanoma = tested on: M14 melanoma
MALME-3M melanoma = tested on: MALME-3M melanoma
MCF7 breast = tested on: MCF7 breast
MDA-MB-231 breast = tested on: MDA-MB-231 breast
MDA-MB-435 = tested on: MDA-MB-435
MDA-N = tested on: MDA-N
MOLT-4 leukemia = tested on: MOLT-4 leukemia
NCI-H226 lung = tested on: NCI-H226 lung
NCI-H23 lung = tested on: NCI-H23 lung
NCI-H460 lung = tested on: NCI-H460 lung
NCI-H522 lung = tested on: NCI-H522 lung
NCI/ADR-RES ovarian = tested on: NCI/ADR-RES ovarian
OVCAR-3 ovarian = tested on: OVCAR-3 ovarian
OVCAR-4 ovarian = tested on: OVCAR-4 ovarian
OVCAR-5 ovarian = tested on: OVCAR-5 ovarian
OVCAR-8 ovarian = tested on: OVCAR-8 ovarian
PC-3 prostate = tested on: PC-3 prostate
RPMI-8226 leukemia = tested on: RPMI-8226 leukemia
RXF 393 renal = tested on: RXF 393 renal
SF-268 CNS = tested on: SF-268 CNS
SF-295 CNS = tested on: SF-295 CNS
SF-539 CNS = tested on: SF-539 CNS
SK-MEL-2 melanoma = tested on: SK-MEL-2 melanoma
SK-MEL-28 melanoma = tested on: SK-MEL-28 melanoma
SK-MEL-5 melanoma = tested on: SK-MEL-5 melanoma
SK-OV-3 ovarian = tested on: SK-OV-3 ovarian
SN12C renal = tested on: SN12C renal
SNB-19 CNS = tested on: SNB-19 CNS
SNB-75 CNS = tested on: SNB-75 CNS
SR leukemia = tested on: SR leukemia
SW-620 colon = tested on: SW-620 colon
T-47D breast = tested on: T-47D breast
TK-10 renal = tested on: TK-10 renal
U251 CNS = tested on: U251 CNS
UACC-257 melanoma = tested on: UACC-257 melanoma
UACC-62 melanoma = tested on: UACC-62 melanoma
UO-31 renal = tested on: UO-31 renal

O=C(O)c1cc2c(cc1CC(Cc1ccc3c(c1)CCCC3)C(=O)O)CCCC2 (centres undefined)
TGI (786-0 renal): > 100 µM
TGI (A498 renal): > 100 µM
TGI (A549 NSCLC): > 100 µM
TGI (ACHN renal): > 100 µM
TGI (BT-549 breast): > 100 µM
TGI (CAKI-1 renal): > 100 µM
TGI (CCRF-CEM leukemia): > 100 µM
TGI (COLO 205 colon): > 100 µM
TGI (DU-145 prostate): > 100 µM
TGI (EKVX NSCLC): > 100 µM
TGI (HCC-2998 colon): > 100 µM
TGI (HCT-116 colon): > 100 µM
TGI (HCT-15 colon): > 100 µM
TGI (HL-60(TB) leukemia): > 100 µM
TGI (HOP-62 NSCLC): > 100 µM
TGI (HOP-92 NSCLC): > 100 µM
TGI (HS 578T breast): > 100 µM
TGI (HT29 colon): > 100 µM
TGI (IGROV1 ovarian): > 100 µM
TGI (K-562 leukemia): > 100 µM
TGI (KM12 colon): > 100 µM
TGI (LOX IMVI melanoma): > 100 µM
TGI (M14 melanoma): > 100 µM
TGI (MALME-3M melanoma): > 100 µM
TGI (MCF7 breast): > 100 µM
TGI (MDA-MB-231 breast): > 100 µM
TGI (MDA-MB-435): > 100 µM
TGI (MDA-N): > 100 µM
TGI (MOLT-4 leukemia): > 100 µM
TGI (NCI-H226 lung): > 100 µM
TGI (NCI-H23 lung): > 100 µM
TGI (NCI-H460 lung): > 100 µM
TGI (NCI-H522 lung): > 100 µM
TGI (NCI/ADR-RES ovarian): > 100 µM
TGI (OVCAR-3 ovarian): > 100 µM
TGI (OVCAR-4 ovarian): 0.758 µM
TGI (OVCAR-5 ovarian): > 100 µM
TGI (OVCAR-8 ovarian): > 100 µM
TGI (PC-3 prostate): > 100 µM
TGI (RPMI-8226 leukemia): > 100 µM
TGI (RXF 393 renal): > 100 µM
TGI (SF-268 CNS): > 100 µM
TGI (SF-295 CNS): > 100 µM
TGI (SF-539 CNS): > 100 µM
TGI (SK-MEL-2 melanoma): > 100 µM
TGI (SK-MEL-28 melanoma): > 100 µM
TGI (SK-MEL-5 melanoma): > 100 µM
TGI (SK-OV-3 ovarian): > 100 µM
TGI (SN12C renal): > 100 µM
TGI (SNB-19 CNS): > 100 µM
TGI (SNB-75 CNS): > 100 µM
TGI (SR leukemia): > 100 µM
TGI (SW-620 colon): > 100 µM
TGI (T-47D breast): > 100 µM
TGI (TK-10 renal): > 100 µM
TGI (U251 CNS): > 100 µM
TGI (UACC-257 melanoma): > 100 µM
TGI (UACC-62 melanoma): > 100 µM
TGI (UO-31 renal): > 100 µM
